For data set [1] the following is noted: 3.0-T, Water; value marked with footnote a (footnote not given); cited from earlier work.
For data set [2] the following is noted: value marked with footnote a (footnote not given); cited from earlier work.
The target in data set [3] is T1, HSA (Homo sapiens, UniProt P02768).
Procedure: (§1) The HSA binding affinity was measured using ultrafiltration analysis.
Data set [4] can be described thus: Relaxability (r1 and r2) under 3.0T and 9.4T magnetic fields in water and HSA. The format is physicochemical.
A further data set has as its system liver. In words: 3.0T MR imaging of liver and gallbladder in normal mice versus commercial contrast agents. The data set is classed as in vivo. To be noted: 5min to 120min after injection, FIG. 9.
The target in data set [5] is T1, HSA. Briefly: HSA binding affinity by ultrafiltration analysis.
Procedure: as §1
A further data set relates to C6 glioma. In words: MR imaging of brain cancer model. The data set is classed as in vivo. To be noted: 0.1 mmol/kg Gd-DO3A-butrol versus 0.05 mmol/kg Gd-PCTA-Ach; FIG. 8A. The method, then: After a brain cancer model was prepared using C6 glioma which is a brain cancer cell, 0.1mmol/kg of Gd-PCTA-Ach 0.1mmol/kg, Gd-PCTA-Ach 0.05mmol/kg, and Gd-DO3A-butrol were injected thereto, respectively, to obtain MR images (FIG. 8A) and CNR graphs (FIG. 8B) according to the MR images, and the results are shown in FIG. 8.

Where two headings read alike, the source gives them in different places.

T1 sequence (P02768 25-609): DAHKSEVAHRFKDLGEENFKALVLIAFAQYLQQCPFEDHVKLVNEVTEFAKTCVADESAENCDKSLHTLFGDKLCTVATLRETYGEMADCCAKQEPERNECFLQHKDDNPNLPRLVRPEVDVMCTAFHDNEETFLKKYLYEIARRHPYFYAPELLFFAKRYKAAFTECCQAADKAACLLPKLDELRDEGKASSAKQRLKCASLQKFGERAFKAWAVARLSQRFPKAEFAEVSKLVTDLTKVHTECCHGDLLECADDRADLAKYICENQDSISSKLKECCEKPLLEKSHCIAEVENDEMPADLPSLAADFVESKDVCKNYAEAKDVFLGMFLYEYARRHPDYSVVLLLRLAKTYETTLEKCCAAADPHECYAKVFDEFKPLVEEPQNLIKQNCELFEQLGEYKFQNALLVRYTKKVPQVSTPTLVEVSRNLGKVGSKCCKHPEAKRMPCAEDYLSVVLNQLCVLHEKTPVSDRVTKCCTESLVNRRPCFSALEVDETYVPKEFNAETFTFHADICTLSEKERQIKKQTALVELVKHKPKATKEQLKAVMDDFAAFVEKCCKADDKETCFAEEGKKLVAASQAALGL
Source text for Hydrophilicity (log P): The Log P value is a value for evaluating the hydrophilicity. When the P value is smaller than 1, the Log P value becomes negative to indicate the hydrophilicity. When the P value is greater than 1, the Log P value becomes positive to indicate lipophilicity.

As to `O=C(CCC(C(=O)[O-])N1CCN(C(CCC(=O)NCC(O)CO)C(=O)[O-])Cc2cccc(n2)CN(C(CCC(=O)NCC(O)CO)C(=O)[O-])CC1)NCC(O)CO.[Gd+3]` (stereo not shown) [Gadopiclenol], the r1 in data set [1] is 11.3 mM⁻¹ s⁻¹. Also, the “log P (log Co/Cw)” value in data set [2] is recorded as -4.2.
With `O=C([O-])CN(CCN(CC(=O)[O-])CC(=O)[O-])CCN(CC(=O)[O-])C(COCc1ccccc1)C(=O)[O-].[Gd+3]` (stereo not shown) [Gd-BOPTA], the “HSA bindin g affinity (%)” value on HSA [3] was 15.0%. The r1 was 5.8 ± 0.2 mM⁻¹ s⁻¹ in data set [4] (3.0-T, HSA); 5.1 ± 0.02 mM⁻¹ s⁻¹ in data set [4] (3.0-T, Water); 6.1 ± 1.1 mM⁻¹ s⁻¹ in data set [4] (9.4-T, Water). Besides, the r2 in data set [4] (3.0-T, HSA) was 9.0 ± 0.3 mM⁻¹ s⁻¹; in data set [4] (3.0-T, Water) it was 6.8 ± 0.4 mM⁻¹ s⁻¹; in data set [4] (9.4-T, Water), 8.1 ± 1.4 mM⁻¹ s⁻¹. The “gallbladder contrast enhancement over time” value with liver is “initially enhanced, and then was observed to decrease slowly”.
Turning to `CCOc1ccc(C[C@@H](CN(CCN(CC(=O)[O-])CC(=O)[O-])CC(=O)[O-])N(CC(=O)[O-])CC(=O)[O-])cc1.[Gd+3].[Na+].[Na+]` [Gd-EOB-DTPA], the “log P (log Co/Cw)” value in “Hydrophilicity (log P)” is reported as -2.9. The “HSA bindin g affinity (%)” value on HSA [5] is 8.9%. Also, the r1 in data set [4] (3.0-T, HSA) is 7.7 ± 0.1 mM⁻¹ s⁻¹; in data set [4] (3.0-T, Water) it was 6.5 ± 0.04 mM⁻¹ s⁻¹; in data set [4] (9.4-T, Water), 7.4 ± 1.4 mM⁻¹ s⁻¹. The r2 in data set [4] (3.0-T, HSA) worked out at 11.1 ± 0.04 mM⁻¹ s⁻¹; in data set [4] (3.0-T, Water) it was 7.3 ± 0.4 mM⁻¹ s⁻¹; in data set [4] (9.4-T, Water), 10.7 ± 1.9 mM⁻¹ s⁻¹. Besides, in the data set with liver, the “gallbladder contrast enhancement over time” value was “initially enhanced, and then was observed to decrease slowly”.
As to Gd-DO3A-butrol, the “brightness in MR image” value in the data set on C6 glioma is given as “comparable”. Moreover, the “log P (log Co/Cw)” value in the data set “Hydrophilicity (log P)” is on record as -3.1. On HSA [5], the “HSA bindin g affinity (%)” value was 3.4%. Further, the r1 in data set [4] (3.0-T, HSA) was found to be 4.3 ± 0.1 mM⁻¹ s⁻¹; in data set [4] (3.0-T, Water) it was 4.3 ± 0.2 mM⁻¹ s⁻¹; in data set [4] (9.4-T, Water) it was 4.9 ± 0.9 mM⁻¹ s⁻¹. Further, the r2 in data set [4] (3.0-T, HSA) was 6.5 ± 0.1 mM⁻¹ s⁻¹; in data set [4] (3.0-T, Water) it was 5.5 ± 0.02 mM⁻¹ s⁻¹; in data set [4] (9.4-T, Water), 6.4 ± 1.1 mM⁻¹ s⁻¹.
